Columns and labels:
[1] = system: B16-F10; test: Cytotoxicity against mouse B16-F10 cells assessed as cell viability at 10 uM irradiated with >= 365 nm Hg lamp for 5 mins after 6 hrs post-treatment and further incubated for 72 hrs by MTT assay; type: functional; conditions: B16-F10, light or radiation study, time 78 hrs, read-out: Activity
[2] = Photorelease ability in PBS buffer at pH 7.4 assessed as compound decomposition by measuring 1-(9-ethyl-9H-carbazol-3-y1)-2,2-dihydroxyethan-l-one photoproduct formation at 100 uM measured upto 5.5 mins of irradiation with >= 365 nm Hg lamp by RP-HPLC analysis followed by 1H-NMR analysis; type: physicochemical; conditions: pH 7.4, 5.5 min
[3] = Photolysis of compound in PBS buffer at pH 7.4 assessed as compound decomposition by measuring final photoproduct formation at 0.1 mM irradiated with >= 365 nm for 20 mins by RP-HPLC analysis; type: physicochemical; conditions: pH 7.4, 20 min, 100 µM
[4] = system: B16-F10; test: Cytotoxicity against mouse B16-F10 cells assessed as cell viability at 1.25 to 10 uM irradiated with >= 365 nm Hg lamp for 5 mins after 6 hrs post-treatment and further incubated for 72 hrs by MTT assay; type: functional; conditions: dose 1.25-10 µM, time 78 hrs
[5] = Stability of compound in PBS buffer at pH 7.4 at 100 uM incubated for 72 hrs under dark condition in presence of cysteine by Reverse-phase HPLC analysis; type: physicochemical; conditions: read-out: Stability
[6] = Drug uptake in mouse B16-F10 cells assessed as drug internalization by measuring blue fluorescence at 20 uM incubated for 4 hrs followed by propidium iodide staining based confocal laser scanning microscopy; type: ADME, cell-based; conditions: b16-f10, 4 h
[7] = Photorelease ability in CDCl3 assessed as compound decomposition by measuring (2,2'-(9-ethy1-9H-carbazole-3,6-chyl)bis(2-oxoacetaldehyde) photoproduct formation at 100 uM measured after 20 mins of irradiation with >= 365 nm Hg lamp by 1H-NMR spectroscopy; type: physicochemical
[8] = Stability of compound in PBS buffer at pH 7.4 at 100 uM incubated for 72 hrs under dark condition by RP-HPLC analysis; type: physicochemical; conditions: read-out: Stability
[9] = Photorelease activity in PBS buffer at pH 7.4 assessed as release of CO using 3',6'-Bis(allyloxy)-3H-spiro(isobenzofuran-1,9'-xanthen)-3-one fluorescent probe at 500 uM irradiated with >= 365 nm Hg lamp for 30 mins in presence of PdCl2 by absorption spectroscopy; type: physicochemical; conditions: pH 7.4, 0.5 h
[10] = system: B16-F10; test: Photorelease activity in mouse B16-F10 cells assessed as uncaging of active molecules of drug by measuring green fluorescence at 20 uM incubated for 4 hrs irradiated with >= 365 nm Hg lamp for 5 mins and further incubated for 4 hrs by propidium iodide staining based confocal laser scanning microscopy; type: functional, cell-based; conditions: time 8.0 hrs
[11] = Photorelease ability in PBS buffer at pH 7.4 assessed as fast uncaging of CO at 100 uM irradiated with >= 365 nm Hg lamp for 60 mins by RP-HPLC analysis; type: physicochemical; conditions: pH 7.4, 1 h
[12] = Photolysis of compound in PBS buffer at pH 7.4 assessed as compound decomposition by measuring final photoproduct formation at 0.1 mM irradiated with >= 365 nm for 60 mins by RP-HPLC analysis; type: physicochemical; conditions: pH 7.4, 1 h, 100 µM
[13] = Photorelease ability in PBS buffer at pH 7.4 assessed as compound decomposition at 100 uM irradiated with >= 365 nm Hg lamp upto 30 mins by UV absorption spectroscopy; type: physicochemical; conditions: read-out: Drug degradation

Compound	viability at 10 µM [1] [%]	Drug degradation [2] [%]	Drug degradation [3] [%]	Activity [4] [%]	remaining at 72 h, 100 µM [5] [%]	Drug uptake [6]	Drug degradation [7] [%]	remaining at 72 h, 100 µM [8] [%]	Drug metabolism [9] [ppm]	Drug metabolism [10] [%]	Drug metabolism [11]	Drug degradation [12] [%]	degraded at 0.5 h, 100 µM [13] [%]
O=C(O)CCCc1ccc(N(CCCl)CCCl)cc1 [CHLORAMBUCIL]	80												
CCn1c2ccccc2c2cc(-c3coc(=O)o3)ccc21		100	93	70	87	Active	100	96	5.9	100			
CCn1c2ccc(C(=O)COC(=O)CCCc3ccc(N(CCCl)CCCl)cc3)cc2c2cc(-c3coc(=O)o3)ccc21				35	93	Active		96	5.7	100	Active	88	
CCn1c2ccc(C(=O)C(O)O)cc2c2cc(-c3coc(=O)o3)ccc21													100

From ChEMBL document CHEMBL5042522, “One- and Two-Photon Uncaging of Carbon Monoxide (CO) with Real-Time Monitoring: On-Demand Carbazole-Based Dual CO-Releasing Platform to Test over Single and Combinatorial Approaches for the Efficient Regression of Orthotopic Murine Melanoma In Vivo” (J Med Chem, 2022)
